Assay results as given in publication PMC8362065, “Easily Available, Amphiphilic Diiron Cyclopentadienyl Complexes Exhibit in Vitro Anticancer Activity in 2D and 3D Human Cancer Cells through Redox Modulation Triggered by CO Release” (Chemistry (Weinheim an Der Bergstrasse, Germany), 2021).

Experiments:
[1] = test system: 3D cell spheroids of human ovarian (2008) cancer cells; assay: Acid phosphatase (APH) assay, 3D spheroid culture; type: cell-based; settings: 2008 spheroids, 72 h, APH test
Excerpt: (§1) The remarkable cell‐killing effect observed in 2D cultured cells prompted us to evaluate the in vitro antitumor activity of the complexes on 3D cell cultures. Differently from 2D monolayer culture, 3D spheroid cell culture systems comprise cancer cells in various cell growth stages. Consequently, the multicellular cancer spheroid model is recognized to better reflect the tumour mass in vivo regarding drug permeation, cell interactions, gene expression, hypoxia and nutrient gradients with respect to monolayer cell cultures, making 3D models more predictive than conventional 2D monolayer cultures in screening antitumor drugs.[38] Table 6 summarizes the IC50 values obtained after treatment of 3D cell spheroids of human ovarian (2008) and pancreatic (PSN‐1) cancer cells with the diiron complexes and cisplatin.
(§2) Spheroid cultures. Spheroid cultures were obtained by seeding 2.5×10^3 cells/well in round bottom non‐tissue culture treated 96 well‐plate (Greiner Bio‐one, Kremsmünster, Austria) in phenol red free RPMI‐1640 medium (Sigma Chemical Co.), containing 10 % FCS and supplemented with 20 % methyl cellulose stock solution.
(§3) Acid phosphatase (APH) assay. An APH modified assay was used for determining cell viability in 3D spheroids, as previously described.[58] IC50 values were calculated with a four‐parameter logistic (4‐PL) model. All the values are the means ± SD of not less than four independent experiments.

[2] = test system: 3D cell spheroids of human pancreatic (PSN‐1) cancer cells; assay: Acid phosphatase (APH) assay, 3D spheroid culture; type: cell-based; settings: PSN‐1 spheroids, 72 h, APH test
Excerpt: as §1, §2, §3

[3] = Solubility pattern of the isolated compound (qualitative); type: physicochemical; settings: isolated solid
[4] = Octanol/water partition coefficient, shake-flask method and UV/Vis
Protocol: Octanol/water partition coefficients (log Pow ). Partition coefficients (P ow; IUPAC: K D partition constant[53]), defined as P ow=corg/caq, where corg and caq are molar concentrations of the selected compound in the organic and aqueous phase, respectively, were determined by the shake‐flask method and UV/Vis measurements.[[16a], [54]] Deionized water and octan‐1‐ol were vigorously stirred for 24 h, to enable saturation of both phases, then separated by centrifugation. A stock solution of the selected Fe compound (ca. 2 mg) was prepared by first adding acetone (50 μL, to help solubilization), followed by water‐saturated octanol (2.5 mL). The solution was diluted with water‐saturated octanol (ca. 1 : 3 v/v ratio, cFe2 ≈10^−4 M, so that 1.5≤A≤2.0 at λ max) and its UV/Vis spectrum was recorded ( A0/org ). An aliquot of the solution (V org=1.2 mL) was transferred into a test tube and octanol‐saturated water (V org=V aq=1.2 mL) was added. The mixture was vigorously stirred for 30 min at 21 °C then centrifuged (RCF 805, 5 min; Hettich EBA 8G). The UV/Vis spectrum of the organic phase was recorded ( Af/org ) and the partition coefficient was calculated as P ow= Af/org /( A0/org g− Af/org ) where A0/org and Af/org are the absorbance in the organic phase before and after partition with the aqueous phase, respectively.[53] For [2B]BF4, [2C]Cl and [3F]CF3SO3 an inverse procedure was followed, starting from a solution of the compound in octanol‐saturated water. The partition coefficient was calculated as P ow=( A0/aq − Af/aq )/ Af/aq where A0/aq and Af/aq are the absorbance in the aqueous phase before and after partition with the organic phase, respectively.

[5] = Stability in D2O, D2O/CD3OD and DMSO-d6/D2O at 37 °C by 1H NMR; type: physicochemical; settings: D2O
Protocol: A detailed study on the behaviour of a selection of the diiron complexes in aqueous media was undertaken. Experimental procedures are provided in the Experimental Section and in the Supporting Information, with data collected in Tables 3, S3 and S4. […] The octanol/water partition coefficients (log P ow) were measured by a UV/Vis method and fall in between 0 and −1, reflecting an amphiphilic or slightly hydrophilic character. […] Conversely, those complexes with aromatic groups (i. e., 1H‐indol‐6‐yl, 2‐naphthyl and bis‐benzyl in [2A]^+, [3G]^+, [4G]^+ and [5H]^+) are less soluble in water and display increased affinity for n‐octanol (log P ow≈0). The diiron compounds are inert in aqueous solution at room temperature, and undergo a slow degradation at 37 °C. Under such conditions, a variable amount (50 to 86 %; Table S3) of the starting material was detected by ^1H NMR in D2O or D2O/CD3OD mixtures after 72 h.[33] During this time, the precipitation of a brown solid was observed, which in one case (from a [2C]CF3SO3 solution) was separated and identified as γ‐Fe2O3 by Raman analysis. In addition, headspace GC analyses performed on 5 % MeOH aqueous solutions of the compounds maintained at 37 °C allowed the identification and quantitation of the carbon monoxide released over a 48 h period (Table S4). These facts indicate that the thermal degradation process in aqueous solution leads to the progressive disassembly of the organometallic scaffold.[16] The presumed, controlled release of the iron centres (converted to iron oxide, see above) and carbon monoxide are two aspects that deserve attention with reference to the biological activity: note that the decay of ferrocene drug candidates into Fe^II ions was previously associated to their cytotoxicity,[34] while the activity of various iron carbonyl complexes was correlated to CO dissociation in the physiological media.[35]
(§4) Stability in water (D2O) and cell culture medium. The procedures are described in the Supporting Information, and data are collected in Table S3.
(§5) Table S3. Stability of diiron complexes in D2O, D2O/CD3OD, DMSO-d6/D2O and cell culture medium (DMEM-
(§6) d/CD3OD) solution at 37 °C calculated by 1H NMR (Me2SO2 internal standard).
(§7) % starting material (72 h) % starting material
(§8) Compound D O D O/CD OD DMSO-d /D O DMEM-d
(§9) [a] X = I for the stability in D 2O, X = CF3SO3 for the stability in cell culture medium. [b] Stability in D 2O and […]

[6] = Stability in cell culture medium (DMEM) at 37 °C by 1H NMR; type: physicochemical; settings: DMEM-d (6.6 % CD3OD)
Protocol: Next, the stability of the diiron compounds in a cell culture medium (DMEM) solution at 37 °C, over a shorter time range (24 h), was assessed by ^1H NMR.
as §4, §5, §6, §7, §8, §9

[7] = test system: Human breast (MCF‐7) carcinoma cell line; assay: MTT assay, 2D cell culture; type: cell-based; settings: 72 h
Protocol: (§10) Compounds [2B]BF4, [2C]CF3SO3, [2D]CF3SO3 and [3F]CF3SO3 were dissolved in water while the other compounds were dissolved in the minimum DMSO amount prior to cell culture testing. A calculated amount of the stock drug DMSO solution was added to the cell culture media to reach a final maximum DMSO concentration of 0.5 %, which had no effects on cell viability.
(§11) Cell cultures. Human colon (HCT‐15), pancreatic (PSN‐1) and breast (MCF‐7) carcinoma cell lines along with human melanoma cells (A375) were obtained from American Type Culture Collection (ATCC, Rockville, MD). Embryonic kidney HEK293 cells were obtained from the European Collection of Cell Cultures (ECACC, Salisbury, UK). Human ovarian 2008 cancer cells were kindly provided by Prof. G. Marverti (Dept. of Biomedical Science of Modena University, Italy). MCF‐7 ADR cells were kindly provided by Prof. N. Colabufo (Dept. Pharmacy, University of Bari, Italy). Cell lines were maintained in the logarithmic phase at 37 °C in a 5 % CO2 atmosphere using the following culture media containing 10 % fetal calf serum (Euroclone, Milan, Italy), antibiotics (50 units/mL penicillin and 50 μg/mL streptomycin) and 2 mM L‐glutamine: i) RPMI‐1640 medium (Euroclone, Milan, Italy) for PSN‐1, 2008, HCT‐15, MCF‐7 and MCF‐7 ADR cells; ii) DMEM for A375 and HEK293 cells.
(§12) MTT assay. The growth inhibitory effect towards tumour cells was evaluated by means of MTT assay as previously described.[57] Briefly, 3–8×10^3 cells/well, dependent upon the growth characteristics of the cell line, were seeded in 96‐well microplates in growth medium (100 μL). After 24 h, the medium was removed and replaced with a fresh one containing the compound to be studied at the appropriate concentration. Triplicate cultures were established for each treatment. After 24 or 72 h, each well was treated with 10 μL of a 5 mg/mL MTT saline solution, and following 5 h of incubation, 100 μL of a sodium dodecyl sulfate (SDS) solution in HCl 0.01 M were added. After an overnight incubation, cell growth inhibition was detected by measuring the absorbance of each well at 570 nm using a Bio‐Rad 680 microplate reader. Mean absorbance for each drug dose was expressed as a percentage of the control untreated well absorbance and plotted against drug concentration. IC50 values, the drug concentrations that reduce the mean absorbance at 570 nm to 50 % of those in the untreated control wells, were calculated by the four‐parameter logistic (4‐PL) model. Evaluation was based on means from at least four independent experiments.

MCF‐7 ADR cells = assay: MTT assay, multidrug-resistant cancer cell model overexpressing P-gp; type: cell-based, human
Protocol: The antiproliferative activity was also investigated in a multidrug‐resistant cancer cell model overexpressing P‐gp (MCF‐7 ADR cells).
as §10, §11, §12

[8] = test system: Human colon (HCT‐15) carcinoma cell line; assay: MTT assay, 2D cell culture; type: cell-based; settings: HCT‐15 cells, 72 h
Protocol: as §10, §11, §12

[9] = test system: Human ovarian 2008 cancer cells; assay: MTT assay, 2D cell culture; type: cell-based; settings: 2008 cells, 72 h
Protocol: as §10, §11, §12

[10] = test system: Human pancreatic (PSN‐1) carcinoma cell line; assay: MTT assay, 2D cell culture; type: cell-based; settings: PSN‐1 cells, 72 h, read-out: IC50 (μM)±SD
Protocol: as §10, §11, §12

[11] = test system: human melanoma cells (A375); assay: MTT assay, 2D cell culture; type: cell-based; settings: 72 h
Protocol: as §10, §11, §12

[12] = test system: Embryonic kidney HEK293 cells; assay: MTT assay, noncancerous cell line; type: cell-based, human; settings: 72 h
Protocol: As one of the main drawbacks of chemotherapeutics is the toxic effect toward noncancerous cells, we measured the cytotoxicity of tested complexes against a noncancerous cell line (HEK293) and calculated the selectivity index (SI, defined as the ratio between the IC50 value in noncancerous cells and the corresponding average IC50 value related to cancer cells; Table 5).
as §10, §11, §12

[13] = test system: 3D cell spheroids of human ovarian (2008) cancer cells; assay: Acid phosphatase (APH) assay, 3D spheroid culture; type: cell-based; settings: 2008 cell line

## [Fe2Cp2(CO)2(μ‐CO){μ‐CNMe(CH2PO3Et2)}]X [[2B]CF3SO3]
[1]
  IC50±SD (μM): ineffective
[2]
  IC50±SD (μM): ineffective

## [Fe2Cp2(CO)2(μ‐CO){μ‐CNMe(2‐naphthyl)}]I [[3G]I]
[3]
  Solubility in water (qualitative): sparingly soluble

## [Fe2Cp2(CO)2(μ‐CO){μ‐CNMe(C6H11)}]X [[2C]Cl]
[4]; octanol/water, 21 °C
  Log P ow: −1.1±0.08
[5]
  % starting material (72 h): 79%
[6]
  % starting material (24 h): 88%

## COc1cccc2c1C(=O)c1c(O)c3c(c(O)c1C2=O)C[C@@](O)(C(=O)CO)C[C@@H]3O[C@H]1C[C@H](N)[C@H](O)[C@H](C)O1 [doxorubicin, reference compound]
[7]; Homo sapiens, MCF7, MCF‐7 cells
  IC50: 0.2 ± 0.03 µM
MCF‐7 ADR cells; Homo sapiens, NCI/ADR-RES, MCF‐7 ADR cells, 72 h, MTT
  IC50: 7.8 ± 2.2 µM
MCF‐7 ADR cells; MCF‐7 ADR vs MCF‐7, 72 h
  RF=IC50 (resistant cells)/IC50 (wild‐type cells): 39

## O=C1C=CC(=O)c2ccccc21 [Naphthoquinone, reference compound]
[4]
  logP at 30 min: 1.8 ± 0.2

## [Fe2Cp2(CO)2(μ‐CO){μ‐CNMe(CH2CHCH2)}]X [[3F]X]
[5]
  % starting material (72 h): 60%
[6]
  % starting material (24 h): 84%

## N.N.[Cl][Pt][Cl] [cisplatin, reference compound]
[7]; MCF‐7 cells
  IC50: 8.8 ± 0.2 µM
[8]
  IC50: 16.5 ± 2.2 µM
[9]
  IC50: 2.2 ± 1.4 µM
[10]
  IC50: 12.1 ± 2.9 µM
[11]
  IC50: 2.1 ± 0.3 µM
[12]; HEK293 noncancerous cells, MTT
  IC50: 18.1 ± 3.6 µM
[12]; IC50 in noncancerous HEK293 cells / average IC50 in cancer cells
  SI (selectivity index): 2.2
[1]
  IC50: 57.6 ± 3.6 µM
[2]
  IC50: 61.7 ± 12.1 µM
[13]
  IC50 ratio related to 3D and 2D experiments: 26

## [Fe2Cp2(CO)2(μ‐CO){μ‐CNMe(CH2CHCH2)}]X [[3F]I]
[3]
  Solubility in water (qualitative): poorly soluble
